Reference: US6416733B1, “Radiopharmaceuticals for imaging infection and inflammation” (Bristol-Myers Squibb Pharma Company, priority 1996, dated 2002)
pKi: −log10 of the molar value.

target: T1, PMN LTB4 receptor (Homo sapiens, UniProt Q15722); test: LTB4 Human Neutrophil (PMN) Binding Assay; conditions: read-out: Ki, affinity for LTB4 (receptor)
T1 construct: endogenous in cells; host or cells: neutrophils (PMN) isolated from heparinized blood by ficoll gradient and dextran sedimentation
Excerpt: LTB4 Human Neutrophil (PMN) Binding Assay
LTB4 for the PMN LTB4 receptor.

T1 sequence (Q15722 whole entry): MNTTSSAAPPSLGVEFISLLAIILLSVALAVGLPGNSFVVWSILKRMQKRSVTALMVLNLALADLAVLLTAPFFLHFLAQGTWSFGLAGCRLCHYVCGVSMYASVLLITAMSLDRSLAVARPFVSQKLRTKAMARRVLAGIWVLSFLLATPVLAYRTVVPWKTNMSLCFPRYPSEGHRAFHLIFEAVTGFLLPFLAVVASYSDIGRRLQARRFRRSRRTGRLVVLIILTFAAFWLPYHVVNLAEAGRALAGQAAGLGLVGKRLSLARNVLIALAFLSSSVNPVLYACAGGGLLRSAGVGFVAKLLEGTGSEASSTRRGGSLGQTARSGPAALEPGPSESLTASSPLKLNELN

Q: `O=C(CCCCCOc1cc(-c2ccc3c(c2)OCO3)cc(-c2ccccc2)n1)NC(Cc1ccc(OCCCNC(=O)c2ccc(N/N=C/c3ccccc3S(=O)(=O)O)nc2)cc1)C(=O)O` (stereo not drawn) [Reagent IV] was tested. Which pKi did it give?
A: 7.28

Q: How did the pKi turn out when `CCc1cc(-c2ccc(F)cc2)c(O)cc1OCCCCC(C)(C)CNC(=O)c1ccc(N/N=C/c2ccccc2)nc1` [IIa] was run?
A: 8.10

Q: With `O=C(CCCCCOc1cc(-c2ccc3c(c2)OCO3)cc(-c2ccccc2)n1)NC(Cc1ccc(O)cc1)C(=O)O` (stereo not drawn) [Compound III] as the molecule, how does the pKi read?
A: 7.39
